Laboratory results as given in patent publication US9221832B2, “Heterocyclic amide derivatives as P2X7 receptor antagonists” (ACTELION PHARMACEUTICALS LTD., priority 2011, dated 2015).

Biological target: human recombinant P2X7 receptor (Homo sapiens (Human), UniProt Q99572)
Assay: YO-PRO assay: P2X7 receptor antagonistic activity
Assay type: cell-based
Conditions: HEK cells expressing human P2X7
Method: The P2X7 receptor antagonistic activity of the compounds of formula (I) is determined in accordance with the following experimental method.
Cell Line Generation and YO-PRO Assay
Cell line generation was performed in general according to established molecular cloning protocols. Specifically, RNA was extracted from human whole blood using the Qiagen RNeasy kit (Qiagen, CH) according to the manufacturer's instructions. Subsequently cDNA was made (Superscript II, Invitrogen AG, CH) and the human P2X7 gene (genbank ref. BC011913) was amplified with the following primers: […] and […]. The amplified sequence was subsequently ligated into a pcDNA3.1 (+) NotI, NheI digested plasmid. […] Following a 24 h exposure to DNA, cells were trypsinized and re-seeded at low density in the presence of 250 μg Geneticin. Geneticin resistant cells were then selected during two consecutive rounds of cloning by serial limiting dilution with visual inspection. Individual clones were screened for P2X7 expression by applying ATP and recording the resultant uptake of YO-PRO1. Specific cell clones were chosen based on RNA and protein expression. HEK cells stably expressing P2X7 were used to screen drugs using the YO-PRO1 assay. Cells were grown to confluency in adherent culture at 37° C. in a humidified 5% CO2 incubator (split 1/5 every 3-4 days with DMEM, 10% FCS, 1% Penicillin/Streptomycin, 250 μg/ml Geneticin). Adherent cells were detached by incubation with Trypsine (1 ml per 165 cm^2 dish) for 2 minutes, then washed off with 10 ml PBS (without Mg^2+ and Ca^2+), and resuspended in DMEM, 10% FCS, 1% Penicillin/Streptomycin, no Geneticin. […] During this time period, four time points were taken. Each time point comprised the average of several measurements made within a few seconds. […] The FLIPR tetra was equipped with Molecular Devices Screen Works system control software to define and run experimental protocols. […] For IC50 measurements the maximum intensity is plotted against the concentration of compound to determine IC50 values.

Sequence of human recombinant P2X7 receptor (Q99572 whole entry): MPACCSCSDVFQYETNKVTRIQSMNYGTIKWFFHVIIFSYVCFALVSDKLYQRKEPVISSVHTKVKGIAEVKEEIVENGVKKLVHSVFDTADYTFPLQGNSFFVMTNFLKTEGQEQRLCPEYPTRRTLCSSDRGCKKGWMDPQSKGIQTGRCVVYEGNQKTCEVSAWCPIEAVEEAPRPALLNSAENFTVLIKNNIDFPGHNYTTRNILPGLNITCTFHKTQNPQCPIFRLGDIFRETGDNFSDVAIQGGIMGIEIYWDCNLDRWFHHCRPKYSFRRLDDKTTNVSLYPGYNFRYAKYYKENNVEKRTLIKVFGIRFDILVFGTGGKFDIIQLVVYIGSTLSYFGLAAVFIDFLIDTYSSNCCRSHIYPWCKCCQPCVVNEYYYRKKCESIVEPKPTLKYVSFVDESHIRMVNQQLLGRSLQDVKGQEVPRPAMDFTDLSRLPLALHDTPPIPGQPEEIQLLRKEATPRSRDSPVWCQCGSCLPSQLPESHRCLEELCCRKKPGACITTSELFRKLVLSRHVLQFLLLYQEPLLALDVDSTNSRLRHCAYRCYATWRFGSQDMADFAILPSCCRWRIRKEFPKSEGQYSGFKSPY

Q: How did the IC50 turn out when Cc1cc(Cl)cc(Cl)c1CC(=O)NC1COc2ncccc21 (racemic) [Example 5, rac-2-(2,4-Dichloro-6-methyl-phenyl)-N-(2,3-dihydro-furo[2,3-b]pyridin-3-yl)-acetamide] was run?
A: 12 nM

Q: With Cc1cc(Cl)cc(Cl)c1CC(=O)NC1CCOc2ncccc21 (racemic) [Example 8, rac-2-(2,4-Dichloro-6-methyl-phenyl)-N-(3,4-dihydro-2H-pyrano[2,3-b]pyridin-4-yl)-acetamide] as the molecule, how does the IC50 read?
A: 43 nM

Q: N#Cc1ccccc1CC(=O)NC1COc2ncccc21 (racemic) [Example 10, rac-2-(2-Cyano-phenyl)-N-(2,3-dihydro-furo[2,3-b]pyridin-3-yl)-acetamide] was tested. Which IC50 did it give?
A: 2980 nM

Q: Cc1ccccc1CC(=O)NC1COc2ncccc21 (racemic) [Example 11, rac-N-(2,3-Dihydro-furo[2,3-b]pyridin-3-yl)-2-o-tolyl-acetamide] was tested. Which IC50 did it give?
A: 1310 nM

Q: With COc1ccccc1CC(=O)NC1COc2ncccc21 (racemic) [Example 12, rac-N-(2,3-Dihydro-furo[2,3-b]pyridin-3-yl)-2-(2-methoxy-phenyl)-acetamide] as the molecule, how does the IC50 read?
A: > 6000 nM

Q: For N#Cc1ccc(CC(=O)NC2COc3ncccc32)cc1 (racemic) [Example 13, rac-2-(4-Cyano-phenyl)-N-(2,3-dihydro-furo[2,3-b]pyridin-3-yl)-acetamide], which IC50 is on record?
A: > 5420 nM

Q: For Cc1ccc(CC(=O)NC2COc3ncccc32)cc1 (racemic) [Example 14, rac-N-(2,3-Dihydro-furo[2,3-b]pyridin-3-yl)-2-p-tolyl-acetamide], which IC50 is on record?
A: > 5430 nM

Q: Which IC50 does the source give for O=C(Cc1ccc(Cl)cc1)NC1COc2ncccc21 (racemic) [Example 15, rac-2-(4-Chloro-phenyl)-N-(2,3-dihydro-furo[2,3-b]pyridin-3-yl)-acetamide] here?
A: 1410 nM

Q: Which IC50 does the source give for O=C(Cc1ccc(C(F)(F)F)cc1)NC1COc2ncccc21 (racemic) [Example 16, rac-N-(2,3-Dihydro-furo[2,3-b]pyridin-3-yl)-2-(4-trifluoromethyl-phenyl)-acetamide] here?
A: 1170 nM

Q: For O=C(Cc1ccc(F)cc1F)NC1COc2ncccc21 (racemic) [Example 17, rac-2-(2,4-Difluoro-phenyl)-N-(2,3-dihydro-furo[2,3-b]pyridin-3-yl)-acetamide], which IC50 is on record?
A: 522 nM

Q: With O=C(Cc1ccc(F)cc1C(F)(F)F)NC1COc2ncccc21 (racemic) [Example 18, rac-N-(2,3-Dihydro-furo[2,3-b]pyridin-3-yl)-2-(4-fluoro-2-trifluoromethyl-phenyl)-acetamide] as the molecule, how does the IC50 read?
A: 393 nM

Q: Which IC50 does the source give for COc1ccc(CC(=O)NC2COc3ncccc32)c(OC)c1 (racemic) [Example 19, rac-N-(2,3-Dihydro-furo[2,3-b]pyridin-3-yl)-2-(2,4-dimethoxy-phenyl)-acetamide] here?
A: > 6660 nM

Q: Which IC50 does the source give for COc1ccc(CC(=O)NC2COc3ncccc32)c(F)c1 (racemic) [Example 20, rac-N-(2,3-Dihydro-furo[2,3-b]pyridin-3-yl)-2-(2-fluoro-4-methoxy-phenyl)-acetamide] here?
A: 578 nM

Q: How did the IC50 turn out when O=C(Cc1ccc(Cl)c(Cl)c1)NC1COc2ncccc21 (racemic) [Example 21, rac-2-(3,4-Dichloro-phenyl)-N-(2,3-dihydro-furo[2,3-b]pyridin-3-yl)-acetamide] was run?
A: 473 nM

Q: With O=C(Cc1c(F)cc(F)cc1F)NC1COc2ncccc21 (racemic) [Example 22, rac-N-(2,3-Dihydro-furo[2,3-b]pyridin-3-yl)-2-(2,4,6-trifluoro-phenyl)-acetamide] as the molecule, how does the IC50 read?
A: 884 nM

Q: For CCc1cc(Cl)cc(Cl)c1CC(=O)NC1COc2ncccc21 (racemic) [Example 32, rac-2-(2,4-Dichloro-6-ethyl-phenyl)-N-(2,3-dihydro-furo[2,3-b]pyridin-3-yl)-acetamide], which IC50 is on record?
A: 23 nM

Q: For O=C(Cc1c(Cl)cc(Cl)cc1C(F)(F)F)NC1COc2ncccc21 (racemic) [Example 33, rac-2-(2,4-Dichloro-6-trifluoromethyl-phenyl)-N-(2,3-dihydro-furo[2,3-b]pyridin-3-yl)-acetamide], which IC50 is on record?
A: 242 nM

Q: With O=C(Cc1cccc(C(F)(F)F)c1Cl)NC1COc2ncccc21 (racemic) [Example 34, rac-2-(2-Chloro-3-trifluoromethyl-phenyl)-N-(2,3-dihydro-furo[2,3-b]pyridin-3-yl)-acetamide] as the molecule, how does the IC50 read?
A: 7.4 nM

Q: With O=C(Cc1ccc(Cl)cc1C(F)(F)F)NC1COc2ncccc21 (racemic) [Example 35, rac-2-(4-Chloro-2-trifluoromethyl-phenyl)-N-(2,3-dihydro-furo[2,3-b]pyridin-3-yl)-acetamide] as the molecule, how does the IC50 read?
A: 193 nM

Q: How did the IC50 turn out when O=C(Cc1ccc(Oc2ccccc2)cc1)NC1COc2ncccc21 (racemic) [Example 36, rac-N-(2,3-Dihydro-furo[2,3-b]pyridin-3-yl)-2-(4-phenoxy-phenyl)-acetamide] was run?
A: 1480 nM

Q: Which IC50 does the source give for N#Cc1cc(Cl)cc(Cl)c1CC(=O)NC1COc2ncccc21 (racemic) [Example 37, rac-2-(2,4-Dichloro-6-cyano-phenyl)-N-(2,3-dihydro-furo[2,3-b]pyridin-3-yl)-acetamide] here?
A: 324 nM

Q: For O=C(Cc1c(Cl)cc(Cl)cc1C1CC1)NC1COc2ncccc21 (racemic) [Example 39, rac-2-(2,4-Dichloro-6-cyclopropyl-phenyl)-N-(2,3-dihydro-furo[2,3-b]pyridin-3-yl)-acetamide], which IC50 is on record?
A: 54 nM

Q: Cc1c(Cl)cc(C(F)(F)F)c(CC(=O)NC2COc3ncccc32)c1F (racemic) [Example 40, rac-2-(4-Chloro-2-fluoro-3-methyl-6-trifluoromethyl-phenyl)-N-(2,3-dihydro-furo[2,3-b]pyridin-3-yl)-acetamide] was tested. Which IC50 did it give?
A: 1580 nM

Q: Which IC50 does the source give for O=C(Cc1cc(F)c(Cl)cc1Cl)NC1COc2ncccc21 (racemic) [Example 41, rac-2-(2,4-Dichloro-5-fluoro-phenyl)-N-(2,3-dihydro-furo[2,3-b]pyridin-3-yl)-acetamide] here?
A: 332 nM

Q: For Cc1ccc(F)c(CC(=O)NC2COc3ncccc32)c1Cl (racemic) [Example 42, rac-2-(2-Chloro-6-fluoro-3-methyl-phenyl)-N-(2,3-dihydro-furo[2,3-b]pyridin-3-yl)-acetamide], which IC50 is on record?
A: 641 nM

Q: With O=C(Cc1cc(Cl)ccc1C(F)(F)F)NC1COc2ncccc21 (racemic) [Example 43, rac-2-(5-Chloro-2-trifluoromethyl-phenyl)-N-(2,3-dihydro-furo[2,3-b]pyridin-3-yl)-acetamide] as the molecule, how does the IC50 read?
A: 8050 nM

Q: O=C(Cc1ccccc1Cl)NC1CCOc2ncccc21 (racemic) [Example 44, rac-2-(2-Chloro-phenyl)-N-(3,4-dihydro-2H-pyrano[2,3-b]pyridin-4-yl)-acetamide] was tested. Which IC50 did it give?
A: 2000 nM

Q: Which IC50 does the source give for N#Cc1ccc(CC(=O)NC2CCOc3ncccc32)cc1 (racemic) [Example 45, rac-2-(4-Cyano-phenyl)-N-(3,4-dihydro-2H-pyrano[2,3-b]pyridin-4-yl)-acetamide] here?
A: > 6460 nM

Q: With O=C(Cc1ccc(C(F)(F)F)cc1)NC1CCOc2ncccc21 (racemic) [Example 46, rac-N-(3,4-Dihydro-2H-pyrano[2,3-b]pyridin-4-yl)-2-(4-trifluoromethyl-phenyl)-acetamide] as the molecule, how does the IC50 read?
A: 1350 nM

Q: Which IC50 does the source give for O=C(Cc1ccc(Oc2ccccc2)cc1)NC1CCOc2ncccc21 (racemic) [Example 48, rac-N-(3,4-Dihydro-2H-pyrano[2,3-b]pyridin-4-yl)-2-(4-phenoxy-phenyl)-acetamide] here?
A: 3300 nM

Q: How did the IC50 turn out when O=C(Cc1cccc(C(F)(F)F)c1Cl)NC1CCOc2ncccc21 (racemic) [Example 49, rac-2-(2-Chloro-3-trifluoromethyl-phenyl)-N-(3,4-dihydro-2H-pyrano[2,3-b]pyridin-4-yl)-acetamide] was run?
A: 17 nM

Q: How did the IC50 turn out when O=C(Cc1c(F)cccc1Cl)NC1CCOc2ncccc21 (racemic) [Example 50, rac-2-(2-Chloro-6-fluoro-phenyl)-N-(3,4-dihydro-2H-pyrano[2,3-b]pyridin-4-yl)-acetamide] was run?
A: 2630 nM

Q: How did the IC50 turn out when O=C(Cc1ccc(F)cc1F)NC1CCOc2ncccc21 (racemic) [Example 51, rac-2-(2,4-Difluoro-phenyl)-N-(3,4-dihydro-2H-pyrano[2,3-b]pyridin-4-yl)-acetamide] was run?
A: 1690 nM

Q: O=C(Cc1ccc(F)cc1C(F)(F)F)NC1CCOc2ncccc21 (racemic) [Example 52, rac-N-(3,4-Dihydro-2H-pyrano[2,3-b]pyridin-4-yl)-2-(4-fluoro-2-trifluoromethyl-phenyl)-acetamide] was tested. Which IC50 did it give?
A: 1870 nM

Q: O=C(Cc1cccc(Cl)c1Cl)NC1CCOc2ncccc21 (racemic) [Example 54, rac-2-(2,3-Dichloro-phenyl)-N-(3,4-dihydro-2H-pyrano[2,3-b]pyridin-4-yl)-acetamide] was tested. Which IC50 did it give?
A: 67 nM

Q: How did the IC50 turn out when O=C(Cc1cc(F)c(Cl)cc1Cl)NC1CCOc2ncccc21 (racemic) [Example 57, rac-2-(2,4-Dichloro-5-fluoro-phenyl)-N-(3,4-dihydro-2H-pyrano[2,3-b]pyridin-4-yl)-acetamide] was run?
A: 1470 nM
